Experimental data published in patent publication US20170211035A1, “BIOLOGICAL INDICATORS” (American Sterilizer Company, priority 2016, published 2017).

Test system: Geobacillus stearothermophilus spores
Assay: Steam resistance of biological indicators in the BIER vessel (kill kinetics, log population versus time)
Type: cell-based
Protocol: In the following examples, the test organism is prepared using a standard lot of Geobacillus stearothermophilus spores suspended in an aqueous carbohydrate solution. In these examples, xylose and dextrose are used as the carbohydrates. Comparative examples are also provided wherein the carbohydrate is not used. In each case, the aqueous suspension is placed in a vial and allowed to dry. The resulting biological indicators are resistance tested. The tests show an unexpected decrease in resistance when the biological indicators are derived from a carbohydrate solution as compared to when no carbohydrate is used.
In these examples, the biological indicators are tested for resistance to steam sterilization using the biological indicator evaluation resistor (BIER) vessel depicted in FIG. 5A. Referring to FIG. 5A, BIER vessel 300 includes chamber 310, door 320, and interior shelf 330 for placement of the biological indicators. Steam, heat and pressure enters chamber 310 as indicated by arrow 340. Vent 350 is provided for the rapid release of steam, heat and pressure. Operation is controlled by a computerized processor, sensors, and valves designed to introduce rapid changes to the environment within the chamber 310.
Referring to FIG. 5B, the process cycle used in the BIER vessel includes six phases, these phases being numbered as phases 1-6 in FIG. 5B. These phases can be described as follows:
The term “log population” refers to the log of the number of colony-forming units (cfu) of viable spores in the test sample. For example, a log population of 6 refers to 10^6 (or 1,000,000) viable colony-forming units of spores in the test sample.

In the case of `O=C[C@H](O)[C@@H](O)[C@H](O)CO` [xylose], the “resistance (time)” value (steam at 121° C., spores dried from suspension in 0.5M carbohydrate solution) is reported as “approximately 4 minutes”, the “time for a 6 log reduction (kill kinetics)” value (steam at 121° C., spores dried from suspension in 1.67 M xylose solution) is reported as “approximately 5 minutes” and the “resistance (time)” value (steam at 132° C., spores dried from suspension in xylose solution as in Example 1 (1.67 M)) is reported as “approximately 1.5 minutes”.
